According to patent US10906946B2, “Thrombin inhibitors” (priority 2015, dated 2021):

Assays:
[1] = tested on: platelets (ADP-induced platelet aggregation); assay: Preservation of platelet function in blood tubes (Multiplate, ADP-induced platelet aggregation); type: cell-based, human (healthy volunteers); settings: ADP agonist
Protocol: (§1) Individual peptides are dissolved in phosphate buffered saline to prepare 10× peptide solutions (ie. concentrations of peptides are 10 times higher than the final concentrations at which they are to be tested). 0.3 ml of the 10× peptide solutions are placed in blood tubes without any additives. Blood was drawn from healthy volunteers using syringes and immediately transferred to a 50 ml conical centrifuge tube (Falcon tube) before pipetting 2.7 ml of the blood into blood tubes with peptide solutions. Final concentrations of peptides are as stated in Table 5 and 6.
Blood tubes with various peptides at different concentrations were left standing at room temperature until tested at designated times. At different time points, tubes were inverted several times and blood samples were taken out for platelet aggregation tests using a Multiplate® Platelet aggregometer with adenosine diphosphate (ADP) as agonist according to manufacturer's recommended protocols.

blood = assay: Anti-coagulation effect of peptides in blood tubes (visual clot formation); design: species or system human (healthy volunteers); settings: room temperature
Protocol: as §1
Blood tubes with various peptides at different concentrations were left standing at room temperature until tested at designated times. At different time points, tubes were inverted several times and visually inspected for insoluble materials as indications of clot formation.

thrombin = target: T1, thrombin (Homo sapiens, UniProt P00734); assay: Cleavage of peptide by thrombin (RP-HPLC, ESI-MS); type: biochemical; settings: peptide incubated with thrombin (30:1)
T1 construct: residues in the termini of the light chain; and in the autolysis loop and C-terminus of the heavy chain; purchased Chemo-Sero-Therapeutic Research Institute (Kaketsuken, Japan), as a gift, not bought
Protocol: A. Evaluation of avathrin cleavage by thrombin by HPLC chromatograms. Avathrin (150 μM) was incubated with thrombin (5 μM) for various times and the reaction mixtures were separated using RP-HPLC; the masses of the cleavage products were analyzed with ESI-MS. At 0 min (upper panel), a single peak corresponding to full length avathrin (mass 3139 Da) was identified. At 120 min (middle panel), two new peaks corresponding to N-terminal cleavage product (^1[…]^10 of SEQ ID NO: 1; mass 982 Da) and C-terminal cleavage product ([…] (SEQ ID NO: 4); mass 2176 Da) were identified in addition to avathrin peak. At 600 min (lower panel), two peaks corresponding to the N- and C-terminal cleaved products were observed while avathrin peak was not observed, indicating complete cleavage. B. Time-dependent cleavage of avathrin by thrombin. Relative percentages of avathrin, its N- and C-terminal cleavage products were quantified by calculating areas under the curve. Each data point is the mean±S.D. of at least three independent experiments. C. Effect of thrombin cleavage on inhibitory properties of avathrin. Avathrin was incubated with thrombin (0.81 nM) for up to 36 h, and assayed at different time points for its ability to inhibit thrombin amidolytic activity on the chromogenic substrate S2238. […]
Thrombin amidolytic activity assays for all peptides were performed in 96-wells microtiter plates in 50 mM Tris buffer (pH 7.4) containing 100 mM NaCl and 1 mg/ml bovine serum albumin. […] The rates of formation of p-nitroaniline were followed by measuring the absorbance at 405 nm for 10 min with a Tecan InfinitePro M200 microplate reader from Tecan (Männedorf, Switzerland). […] To measure the inhibitory constants, different concentrations of S2238 were used and the residual velocities were determined using the Morrison's tight binding equation. Inhibition of thrombin fibrinogenolytic activity of peptides were tested by measuring absorbance at 650 nm using a Sunrise microplate reader from Tecan (Männedorf, Switzerland) as described previously [Koh C Y, et al., J Biol Chem 282: 29101-13 (2007)]. […] Effects of avathrin on the amidolytic activities of these serine proteases were determined using respective chromogenic substrates. […] After different incubation times, reactions were quenched with 1% TFA (pH 1.8) and loaded onto a Jupiter Proteo column (4 μm, 90 Å, 100×1.0 mm) attached to a Dionex nano-HPLC system from Thermo Fisher Scientific (Waltham, Mass., USA) and eluted using an acetonitrile gradient with 0.05% TFA and 99.95% MilliQ water as eluent A and 0.05% TFA, 19.95% MilliQ water and 80% ACN as eluent B. Masses of all peaks were measured to identify cleavage products, which were subsequently quantified by integrating the peaks and calculating the area under the curves. […]

CC[C@H](C)[C@H](NC(=O)[C@H](C)NC(=O)[C@H](CCC(=O)O)NC(=O)[C@H](Cc1ccccc1)NC(=O)[C@H](CC(=O)O)NC(=O)[C@H](Cc1ccccc1)NC(=O)[C@@H]1CCCN1C(=O)[C@@H]1CCCN1C(=O)[C@H](C)NC(=O)[C@@H](NC(=O)[C@H](CCCCN)NC(=O)[C@H](Cc1c[nH]cn1)NC(=O)[C@H](CCSC)NC(=O)[C@H](CCCCN)NC(=O)[C@@H]1CCCN1C(=O)[C@H](CCC(=O)O)NC(=O)[C@H](C)NC(=O)[C@@H](NC(=O)[C@H](CC(=O)O)NC(=O)CNC(=O)[C@H](CCC(N)=O)NC(=O)[C@H](CC(=O)O)NC(=O)[C@@H](N)CO)C(C)C)[C@@H](C)O)C(=O)N1CCC[C@H]1C(=O)N[C@@H](CCC(=O)O)C(=O)N[C@@H](CCC(=O)O)C(=O)N[C@@H](Cc1ccc(O)cc1)C(=O)N[C@@H](CC(C)C)C(=O)N[C@@H](CC(=O)O)C(=O)N[C@@H](CC(=O)O)C(=O)N[C@@H](CCC(=O)O)C(=O)N[C@@H](CO)C(=O)O [Variegin, reference compound]
Multiplate AUC (U) ([1]; 1.5 h, peptide 150 μM): 65.2 U
Multiplate AUC (U) ([1]; 1.5 h, peptide 300 μM): 52.3 U
Multiplate AUC (U) ([1]; 4 h, peptide 150 μM): 48.6 U
Multiplate AUC (U) ([1]; 4 h, peptide 300 μM): 33.9 U
Multiplate AUC (U) ([1]; 24 h, peptide 150 μM): 41.9 U
Multiplate AUC (U) ([1]; 24 h, peptide 300 μM): 40.5 U
Multiplate AUC (U) ([1]; 48 h, peptide 300 μM): 18.3 U
Time to observe clot formation (blood; final concentration 75 micromolar): 46 h
Time to observe clot formation (blood; final concentration 150 micromolar): 52 to 66 h
Time to observe clot formation (blood; final concentration 300 micromolar): 52 to 66 h
time to complete cleavage by thrombin (thrombin): 4 h
